One may read the IC50 as the concentration that gives 50% inhibition.

T1 sequence (Q15858 whole entry, looked up): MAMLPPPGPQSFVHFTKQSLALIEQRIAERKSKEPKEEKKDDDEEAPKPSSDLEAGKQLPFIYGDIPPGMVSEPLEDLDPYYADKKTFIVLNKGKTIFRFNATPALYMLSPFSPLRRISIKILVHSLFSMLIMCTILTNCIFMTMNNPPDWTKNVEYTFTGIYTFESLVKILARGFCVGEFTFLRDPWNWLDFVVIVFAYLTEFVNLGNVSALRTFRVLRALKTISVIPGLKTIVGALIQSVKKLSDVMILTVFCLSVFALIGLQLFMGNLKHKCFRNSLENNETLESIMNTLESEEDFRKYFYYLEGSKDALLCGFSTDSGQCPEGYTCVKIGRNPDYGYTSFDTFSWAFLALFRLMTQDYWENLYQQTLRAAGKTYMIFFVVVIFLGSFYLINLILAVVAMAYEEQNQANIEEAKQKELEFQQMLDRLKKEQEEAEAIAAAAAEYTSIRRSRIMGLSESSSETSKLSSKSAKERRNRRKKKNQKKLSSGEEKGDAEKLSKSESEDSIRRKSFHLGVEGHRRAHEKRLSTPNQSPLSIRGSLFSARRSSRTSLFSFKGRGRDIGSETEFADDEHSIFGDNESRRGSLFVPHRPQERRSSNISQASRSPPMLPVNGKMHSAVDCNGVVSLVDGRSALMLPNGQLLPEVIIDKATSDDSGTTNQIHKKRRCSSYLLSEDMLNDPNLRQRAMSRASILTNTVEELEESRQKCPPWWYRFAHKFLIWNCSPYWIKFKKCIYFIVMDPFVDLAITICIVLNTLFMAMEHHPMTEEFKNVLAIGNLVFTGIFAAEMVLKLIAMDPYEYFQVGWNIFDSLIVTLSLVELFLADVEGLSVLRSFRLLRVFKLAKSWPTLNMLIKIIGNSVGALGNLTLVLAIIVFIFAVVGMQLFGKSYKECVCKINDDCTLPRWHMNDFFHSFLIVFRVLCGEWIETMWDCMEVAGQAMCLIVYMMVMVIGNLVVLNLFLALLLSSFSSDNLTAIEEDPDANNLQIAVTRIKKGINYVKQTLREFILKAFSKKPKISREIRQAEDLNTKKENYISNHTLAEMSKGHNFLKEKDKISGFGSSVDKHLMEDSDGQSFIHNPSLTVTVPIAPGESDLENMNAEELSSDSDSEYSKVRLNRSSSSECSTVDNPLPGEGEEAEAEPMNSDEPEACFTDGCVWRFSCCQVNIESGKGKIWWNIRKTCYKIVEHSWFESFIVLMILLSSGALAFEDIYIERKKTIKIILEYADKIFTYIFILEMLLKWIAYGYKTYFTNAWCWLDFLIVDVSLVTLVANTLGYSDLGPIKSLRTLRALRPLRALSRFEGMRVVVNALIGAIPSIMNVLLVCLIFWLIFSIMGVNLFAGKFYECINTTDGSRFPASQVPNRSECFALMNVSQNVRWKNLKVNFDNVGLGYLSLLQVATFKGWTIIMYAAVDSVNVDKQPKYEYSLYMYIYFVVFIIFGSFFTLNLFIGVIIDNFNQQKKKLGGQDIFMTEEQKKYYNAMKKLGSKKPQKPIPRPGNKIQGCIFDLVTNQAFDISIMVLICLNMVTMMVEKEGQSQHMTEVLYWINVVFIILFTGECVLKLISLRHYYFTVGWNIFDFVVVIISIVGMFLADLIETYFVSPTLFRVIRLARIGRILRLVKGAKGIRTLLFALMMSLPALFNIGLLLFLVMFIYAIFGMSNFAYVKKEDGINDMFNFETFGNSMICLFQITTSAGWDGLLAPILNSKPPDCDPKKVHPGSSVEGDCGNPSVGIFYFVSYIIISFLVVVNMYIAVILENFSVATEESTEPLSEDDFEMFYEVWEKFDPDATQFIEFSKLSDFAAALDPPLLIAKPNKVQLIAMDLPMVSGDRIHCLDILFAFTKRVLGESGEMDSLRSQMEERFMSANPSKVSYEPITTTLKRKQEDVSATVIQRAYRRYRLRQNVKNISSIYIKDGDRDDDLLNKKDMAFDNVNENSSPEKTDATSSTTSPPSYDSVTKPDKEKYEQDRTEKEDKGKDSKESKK
T1 sequence (Q07699 whole entry partner, looked up): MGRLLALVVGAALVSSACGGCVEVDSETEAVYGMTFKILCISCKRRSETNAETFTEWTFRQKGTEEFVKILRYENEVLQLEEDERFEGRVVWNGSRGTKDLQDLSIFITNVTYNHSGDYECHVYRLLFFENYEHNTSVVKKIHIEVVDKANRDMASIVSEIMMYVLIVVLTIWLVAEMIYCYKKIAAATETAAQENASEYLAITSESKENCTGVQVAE

One assay has as its target T1, hNav1.7 (Homo sapiens (Human), UniProt Q15858). Description: Tritiated aryl sulfonamide binding to membranes from cells expressing hNav1.7 and the β1 subunit (competitive binding). The conditions noted are these: membranes with hNav1.7 and β1 subunit; [3H]compound displacement, 18 h, room temperature; read-out: NaV1.7 395 Memb Binding (IC50). How it is done:
Tritiated Aryl Sulfonamide Binding to Membranes Isolated from Cells that Heterologously Express hNav1.7 and the β1 Subunit
Preparation of membranes containing recombinantly expressed sodium channels: Frozen recombinant cell pellets were thawed on ice and diluted to 4 times the cell pellet weight with ice cold 50 mM Tris HCl, pH 7.4 buffer. The cell suspensions were homogenized on ice using a motorized glass dounce homogeniser. Homogenates were further diluted 8.4 times with ice cold 50 mM Tris HCl, pH 7.4 buffer and then centrifuged at 200×g at 4° C. for 15 min. The supernatants were collected and centrifuged at 10000×g at 4° C. for 50 min. The pellets were then re-suspended in 100 mM NaCl, 20 mM Tris HCl, pH 7.4 buffer containing 1% v/v protease inhibitors (Calbiochem) and re-homogenized on ice. The homogenized membranes were then processed through a syringe equipped with a 26 gauge needle. Protein concentrations were determined by Bradford Assay and the membranes were stored at −80° C.
Radioligand Binding Studies: Saturation experiments. A representative compound of formula (I) was tritiated. Three tritiums were incorporated in place of methyl hydrogens to generate [^3H]compound. Binding of this radioligand was preformed in 5 mL borosilicate glass test tubes at room temperature. Binding was initiated by adding membranes to increasing concentrations of [^3H]compound in 100 mM NaCl, 20 mM Tris HCl, pH 7.4 buffer containing 0.01% w/v bovine serum albumin (BSA) for 18 h. Non-specific binding was determined in the presence of 1 μM unlabelled compound. After 18 h, the reactants were filtered through GF/C glass fiber filters presoaked in 0.5% w/v polyethylene imine. […] [^3H]compound bound to filters was quantified by liquid scintillation counting.
Competitive binding experiments. Binding reactions were preformed in 96-well polypropylene plates at room temperature for 18 h. In 360 μL, membranes were incubated with 100 μM [^3H]compound and increasing concentrations of Test Compound. Non-specific binding was defined in the presence of 1 μM unlabelled compound. Reactions were transferred and filtered through 96-well glass fiber/C filter plates presoaked with 0.5% polyethylene imine. The filtered reactions were washed 5 times with 200 L ice cold buffer containing 0.25% BSA. Bound radioactivity was determined by liquid scintillation counting.
Data Analysis: For saturation experiments, non-specific binding was subtracted from total binding to provide specific binding and these values were recalculated in terms of pmol ligand bound per mg protein. Saturation curves were constructed and dissociation constants were calculated using the single site ligand binding model: Beq=(Bmax*X)/(X+Kd), where Beq is the amount of ligand bound at equilibrium, Bmax is the maximum receptor density, Kd is the dissociation constant for the ligand, and X is the free ligand concentration.
As for `O=C(NS(=O)(=O)N1CCC1)c1cc(C2CC2)c(OCC2CCCC(F)(F)C2)cc1F` (stereo not drawn) [Example 404], the IC50 worked out at 23 nM.
Same read-out and setting: the same measure for `O=C(NS(=O)(=O)N1CCC1)c1cc(C2CC2)c(OCC23CC4CC(CC(CF)(C4)C2)C3)cc1F`: 4 nM; for `O=C(NS(=O)(=O)C1CC1)c1cc(Cl)c(OCC2(C(F)(F)F)CCC2)cc1F` [Example 328]: 24 nM; for `CNS(=O)(=O)NC(=O)c1cc(C2CC2)c(OCC2CN(C(c3ccccc3)c3ccccc3)C2)cc1F`: 34 nM.
Still for that read-out and setting: the same measure for “5-chloro-4-(cyclohexylmethoxy)-2-fluoro-N-(methylsulfonyl)benzamide [Example 21]”: 1060 nM; for `O=C(NS(=O)(=O)C1CC1)c1cc(C2CC2(F)F)c(OCC23CC4CC(CC(C4)C2)C3)cc1F` (stereo not drawn): 4 nM.
Same read-out and setting: the same measure for `O=C(NS(=O)(=O)N1CCC1)c1cc(C2CC2)c(OCCC2CCC(F)(F)CC2)cc1F`: 230 nM; for `CC1(C)C(COc2cc(F)c(C(=O)NS(C)(=O)=O)cc2Cl)C1(C)C`: 10000 nM; for `CNS(=O)(=O)NC(=O)c1cc(C2CC2)c(OCC2(C#N)C3CC4CC(C3)CC2C4)cc1F` (stereo not drawn): 43 nM.
Consider `CS(=O)(=O)NC(=O)c1cc(C2CC2)c(OCC2C3CC4CC(C3)CC2C4)cc1F` (stereo not drawn), for which the IC50 was 3.1 nM.
Consider `CNS(=O)(=O)NC(=O)c1cc(Cl)c(OCC23CC4CC(CC(C4)C2)C3)cc1F`, for which the IC50 is 97 nM.
`CNS(=O)(=O)NC(=O)c1cc(Cl)c(OC2C3CC4CC2CC(C(=O)OC)(C4)C3)cc1F` (single isomer, unassigned) [Example 452]: the IC50 worked out at 7100 nM.
Same read-out and setting: the result for `O=C(NS(=O)(=O)c1c[nH]cn1)c1cc(Cl)c(OCC23CC4CC(CC(C4)C2)C3)cc1F` reads 190 nM; that for `CN(C)S(=O)(=O)NC(=O)c1cc(Cl)c(OCCCC2CCCC2)cc1F`, 300 nM.
Turning to `O=C(NS(=O)(=O)C1CCC1)c1cc(C2CC2)c(OCC23CC4CC(CC(C4)C2)C3)cc1F` [Example 211], the IC50 is 2 nM.
For `CS(=O)(=O)NC(=O)c1cc(C2CC2)c(OCC2CCC3(CC2)CC3)cc1F`, the IC50 is 2 nM.
Still for that read-out and setting: the result for `O=C(NS(=O)(=O)N1CC2(COC2)C1)c1cc(C2CC2)c(OCC23CC4CC(CC(C4)C2)C3)cc1F` [Example 237] reads 67 nM; that for `CN(C)S(=O)(=O)NC(=O)c1cc(Cl)c(OCCC23CC4CC(CC(C4)C2)C3)cc1F`, 166 nM.
The same measure, in the same setting: the result for `O=C(NS(=O)(=O)N1CC(F)C1)c1cc(C2CC2)c(OCC2CCC(F)(F)CC2)cc1F` [Example 226] reads 30 nM; that for `CN(C)S(=O)(=O)NC(=O)c1cc(Cl)c(OCC2C3CC4CC(C3)CC2C4)cc1F` (stereo not drawn), 51 nM; that for `CS(=O)(=O)NC(=O)c1cc(Cl)c(OCC23CC4CC(CC(C4)C2)C3)c(Cl)c1`, 540 nM.
Same read-out and setting: the same measure for `CNS(=O)(=O)NC(=O)c1cc(C2CC2)c(OCC2CCC(F)(F)CC2)cc1F`: 130 nM.
On to `CS(=O)(=O)NC(=O)c1ccc(OCC23CC4CC(CC(O)(C4)C2)C3)c(Cl)c1` [Example 24], for which the IC50 is 10000 nM.
On the same count and under the same terms, the result for `CN(C)S(=O)(=O)NC(=O)c1cc(Cl)c(OCC2CCCCCC2)cc1F` [Example 100] reads 299 nM; that for `COCCCS(=O)(=O)NC(=O)c1cc(C2CC2)c(OCC23CC4CC(CC(C4)C2)C3)cc1F`, 22 nM; that for `CN(C)S(=O)(=O)NC(=O)c1cc(Cl)c(OCC2CCC3(CCC3)CC2)cc1F`, 81 nM.
Still for that read-out and setting: the same measure for `CN(C)S(=O)(=O)NC(=O)c1cc(Cl)c(COc2ccc3c(c2)CCC(C)(C)C3)cc1F`: 86 nM; for `COc1ncccc1-c1cc(C(=O)NS(C)(=O)=O)ccc1OCC12CC3CC(CC(C3)C1)C2`: 803 nM; for `CS(=O)(=O)NC(=O)c1cc(Cl)c(OCC2CCC(F)(F)CC2)cc1F`: 558 nM.
Regarding `CS(=O)(=O)NC(=O)c1cc(Cl)c(OC[C@H]2CC[C@H](C(F)(F)F)CC2)cc1F`, the half-maximal inhibitory concentration (IC50) is 158 nM.
On the same count and under the same terms, the same measure for `CNS(=O)(=O)NC(=O)c1cc(Cl)c(COc2ccc3c(c2)OC(C)(C)CC3)cc1F`: 180 nM; for `CS(=O)(=O)NC(=O)c1cc(Cl)c(OCC2(C#N)C3CC4CC(C3)CC2C4)cc1F` (stereo not drawn): 310 nM; for `CC1(C)[C@H]2CC=C(COc3cc(F)c(C(=O)NS(C)(=O)=O)cc3Cl)[C@@H]1C2`: 117 nM.
Same read-out and setting: the result for `CS(=O)(=O)NC(=O)c1cc(Cl)c(OCC2CCCCC2)cc1F` reads 140 nM.
The same measure, in the same setting: the result for `CC(C)[C@H]1CC[C@H](Oc2cc(F)c(C(=O)NS(=O)(=O)N(C)C)cc2Cl)CC1` reads 138 nM; that for “5-chloro-N—(N,N-dimethylsulfamoyl)-2-fluoro-4-((4-pentylbicyclo[2.2.2]octan-1-yl)-methoxy)benzamide [Example 91]”, 1210 nM; that for `CN(C)S(=O)(=O)NC(=O)c1cc(Cl)c(OC2CCC(C(F)(F)F)CC2)cc1F` (stereo not drawn) [Example 138], 1120 nM.
Regarding `CCOCCS(=O)(=O)NC(=O)c1cc(C2CC2)c(OCC23CC4CC(CC(C4)C2)C3)cc1F`, the IC50 was 12 nM.
With `CN(C)S(=O)(=O)NC(=O)c1cc(Cl)c(OCC2CCCC2)cc1F`, the IC50 was determined as 672 nM.
Same read-out and setting: the result for `O=C(NS(=O)(=O)N1CCC1)c1cc(C2(O)COC2)c(OCC23CC4CC(CC(C4)C2)C3)cc1F` reads 70 nM.
The same measure, in the same setting: the same measure for `COCCNS(=O)(=O)NC(=O)c1cc(C2CC2)c(OCC23CC4CC(CC(C4)C2)C3)cc1F`: 12 nM; for `COC(=O)C12CC3CC(C1)C(Oc1cc(F)c(C(=O)NS(C)(=O)=O)cc1Cl)C(C3)C2` (single isomer, unassigned) [Example 450]: 1200 nM.
Still for that read-out and setting: the same measure for `CN(C)S(=O)(=O)NC(=O)c1cc(Cl)c(OC2CCC3(CCCC3)CC2)cc1F`: 273 nM; for `Cc1cc(C(=O)NS(=O)(=O)N2CCC2)c(F)cc1OCC12CC3CC(CC(C3)C1)C2`: 10 nM; for `CS(=O)(=O)NC(=O)c1cc(Cl)c(Oc2ccc3c(c2)CCCC3)cc1F`: 190 nM.
With `CC1(C)CCC(Oc2cc(F)c(C(=O)NS(C)(=O)=O)cc2Cl)CC1`, the IC50 stood at 166 nM.
Regarding `CC(O)c1cc(C(=O)NS(=O)(=O)N2CCC2)c(F)cc1OCC12CC3CC(CC(C3)C1)C2` (stereo not drawn), the IC50 came to 12 nM.
Still for that read-out and setting: the result for `CN(C)S(=O)(=O)NC(=O)c1cc(Cl)c(OC2CCC3(CCCCC3)CC2)cc1F` reads 281 nM.
Same read-out and setting: the result for `CNS(=O)(=O)NC(=O)c1cc(Cl)c(OC2C3CC4CC2CC(C(=O)OC)(C4)C3)cc1F` (single isomer, unassigned) [Example 453] reads 950 nM.
With `O=C(NS(=O)(=O)N1CCC1)c1cc(C2CC2)c(OCC2CC3CC3C2)cc1F` (stereo not drawn) [Example 454], the concentration for half-maximal inhibition (IC50) came to 18 nM.
As for `CNS(=O)(=O)NC(=O)c1cc(C2CC2)c(OCC23CC4CC(CC(C4)C2)C3)cc1F`, the IC50 turned out to be 2.1 nM.
The same measure, in the same setting: the result for `CS(=O)(=O)NC(=O)c1cc(Cl)c(OC2CC3CC2C2CCCC32)cc1F` (stereo not drawn) reads 205 nM; that for `O=C(NS(=O)(=O)N1CCC1)c1cc(C2CC2)c(OCC23CCCCC2C3(F)F)cc1F` (stereo not drawn) [Example 434], 11 nM; that for `O=C(NS(=O)(=O)N1CCC1)c1ccc(OCC23CC4CC(CC(C4)C2)C3)c(C(F)(F)F)c1` [Example 53], 100 nM.
On the same count and under the same terms, the same measure for `CS(=O)(=O)NC(=O)c1cc(Cl)c(C(=O)NC23CC4CC(CC(C4)C2)C3)cc1F`: 10000 nM; for `O=C(NS(=O)(=O)C1CC1)c1cc(C2CC2)c(OCC2CCCC2)cc1F` [Example 242]: 20 nM; for `CC(C)OCCS(=O)(=O)NC(=O)c1cc(C2CC2)c(OCC23CC4CC(CC(C4)C2)C3)cc1F`: 40 nM.

The assay is the same for the next values; noted with them: read-out: NaV1.7 395 Memb Binding (IC50).
“4-((1-((4-chlorophenyl)(phenyl)methyl)azetidin-3-yl)-methoxy)-5-cyclopropyl-2-fluoro-N-(methylsulfonyl)benzamide [Example 398]”: the IC50 came out at 6 nM.

Another assay deals with T1, hNav1.7. Description: Patch voltage clamp electrophysiology (PatchXpress), HEK-293 cells, inactivated state block. The assay is classed as cell-based. Conditions: HEK-293 cells, β1 coexpressed; inactivated state, holding −60 mV; read-out: EP_PX 293 hNav1.7 (IC50).
On to `O=C(NS(=O)(=O)N1CCC1)c1cc(C2CC2)c(OCC2CCCC(F)(F)C2)cc1F` (stereo not drawn) [Example 404], for which the IC50 came to 57 nM.
On the same count and under the same terms, the result for “4-(adamantan-1-ylmethoxy)-3-chloro-N-(methylsulfonyl)benzamide [Example 12]” reads 6.9 nM; that for `O=C(NS(=O)(=O)N1CCC1)c1cc(C2CC2)c(OCC23CC4CC(CC(CF)(C4)C2)C3)cc1F`, 8 nM; that for `O=C(NS(=O)(=O)C1CC1)c1cc(Cl)c(OCC2(C(F)(F)F)CCC2)cc1F` [Example 328], 70 nM.
With `CNS(=O)(=O)NC(=O)c1cc(C2CC2)c(OCC2CN(C(c3ccccc3)c3ccccc3)C2)cc1F`, the concentration for half-maximal inhibition (IC50) stood at 600 nM.
Still for that read-out and setting: the same measure for “5-chloro-4-(cyclohexylmethoxy)-2-fluoro-N-(methylsulfonyl)benzamide [Example 21]”: 107 nM.
Same read-out and setting: the result for `O=C(NS(=O)(=O)C1CC1)c1cc(C2CC2(F)F)c(OCC23CC4CC(CC(C4)C2)C3)cc1F` (stereo not drawn) reads 140 nM; that for `O=C(NS(=O)(=O)N1CCC1)c1cc(C2CC2)c(OCCC2CCC(F)(F)CC2)cc1F`, 80 nM.

The record behind these values is patent US8952169B2 (Genentech, Inc., priority 2012, dated 2015).
